Reference: ChEMBL document CHEMBL1201862, “PubChem BioAssay data set” (2004)
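Step 1: Grow cells in 96-well plates. Step 2: Expose to compound for 48 hours at 5 concentrations. Step 3: Interpolate endpoints linearly; if unreached, use highest concentration. At the GI50, growth is halved.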 Calls of active or inactive are those of the source. Rule as the data show it: active = GI50 up to about 1.1 µM and inactive = higher.

What was measured:
Experiment in all cases: DTP human tumour cell line panel, 48 h
SK-OV-3 = system: SK-OV-3
OVCAR-4 = system: OVCAR-4
HCT-15 = system: HCT-15
SF-539 = system: SF-539
SNB-19 = system: SNB-19
SN12C = system: SN12C
OVCAR-3 = system: OVCAR-3
Malme-3M = system: Malme-3M
SK-MEL-28 = system: SK-MEL-28
ACHN = system: ACHN
RXF 393 = system: RXF 393
SW-620 = system: SW-620
HT-29 = system: HT-29
IGROV-1 = system: IGROV-1
SNB-75 = system: SNB-75
HCC 2998 = system: HCC 2998

| SMILES | GI50 (SK-OV-3) | GI50 (OVCAR-4) | GI50 (HCT-15) [µM] | GI50 (SF-539) | GI50 (SNB-19) | GI50 (SN12C) | GI50 (OVCAR-3) | GI50 (Malme-3M) | GI50 (SK-MEL-28) | GI50 (ACHN) | GI50 (RXF 393) | GI50 (SW-620) | GI50 (HT-29) | GI50 (IGROV-1) | GI50 (SNB-75) | GI50 (HCC 2998) |
| --- | --- | --- | --- | --- | --- | --- | --- | --- | --- | --- | --- | --- | --- | --- | --- | --- |
| C/C=C/C=C/[C@H]1Cc2cc(O)cc(O)c2O1 | > 100 µM (inactive) | 35 µM (inactive) | 84.9 | > 100 µM (inactive) | 80.7 µM (inactive) | 55.3 µM (inactive) | 33 µM (inactive) | 52.5 µM (inactive) | > 100 µM (inactive) | 52.5 µM (inactive) | > 100 µM (inactive) | 58.6 µM (inactive) | 72.4 µM (inactive) | > 100 µM (inactive) | > 100 µM (inactive) |  |
| NCCOCn1cc(Cc2cccc(OCc3ccccc3)c2)c(=O)[nH]c1=O | > 100 µM (inactive) | 90.6 µM (inactive) | > 100 | > 100 µM (inactive) | > 100 µM (inactive) | > 100 µM (inactive) | > 100 µM (inactive) |  | > 100 µM (inactive) | > 10 µM (inactive) |  | > 100 µM (inactive) | 71.1 µM (inactive) | > 100 µM (inactive) | 79.8 µM (inactive) | 42.2 µM (inactive) |
| [O-][S+]1c2ccccc2N=C(c2cccc3ccccc23)CC1c1cccc2ccccc12 (stereo not drawn) | 32.9 µM (inactive) | 12.8 µM (inactive) | 15.1 | 19.5 µM (inactive) | 21 µM (inactive) | 16.6 µM (inactive) | 19.1 µM (inactive) | 22.9 µM (inactive) | 0.91 µM (active) | 23.1 µM (inactive) | 22.6 µM (inactive) | 17.7 µM (inactive) | 25.7 µM (inactive) | 15.1 µM (inactive) | 23.1 µM (inactive) | 17.2 µM (inactive) |
| COC(=O)/C(=N\Nc1nc(S)nn1N)C(C#N)c1ccccc1 (stereo not drawn) | > 100 µM (inactive) | > 100 µM (inactive) | > 100 |  | > 100 µM (inactive) | > 100 µM (inactive) | > 100 µM (inactive) | > 100 µM (inactive) | > 100 µM (inactive) | > 100 µM (inactive) | > 100 µM (inactive) | > 100 µM (inactive) | > 100 µM (inactive) | > 100 µM (inactive) | > 100 µM (inactive) | > 100 µM (inactive) |
| O=C1C/C(=C/c2ccc(/C=C3/CC(=O)N(c4cccc(Br)c4)C3=O)cc2)C(=O)N1c1cccc(Br)c1 | > 100 µM (inactive) | > 100 µM (inactive) | > 100 | 51.5 µM (inactive) | > 100 µM (inactive) | > 100 µM (inactive) | > 100 µM (inactive) | > 100 µM (inactive) | > 100 µM (inactive) | > 100 µM (inactive) | 30.1 µM (inactive) | > 100 µM (inactive) | > 100 µM (inactive) | > 100 µM (inactive) | 23.5 µM (inactive) | > 100 µM (inactive) |
| O=C(O)c1ccccc1[Se][Se]c1ccccc1C(=O)O | 85.5 µM (inactive) |  | 55.1 | 23.4 µM (inactive) | 11.2 µM (inactive) | 53 µM (inactive) | 51.1 µM (inactive) | 47.2 µM (inactive) | 38.1 µM (inactive) | > 100 µM (inactive) | 38.3 µM (inactive) | > 100 µM (inactive) | 35.1 µM (inactive) | 51.6 µM (inactive) | 29.5 µM (inactive) | 89.7 µM (inactive) |
| COc1cc(/C=C(\NC(=O)c2ccccc2)c2nc3c(O)nc(S)nc3[nH]2)cc(OC)c1OC | > 100 µM (inactive) | > 100 µM (inactive) | > 100 | > 100 µM (inactive) | > 100 µM (inactive) | > 100 µM (inactive) | > 100 µM (inactive) | > 100 µM (inactive) | > 100 µM (inactive) | > 100 µM (inactive) | > 100 µM (inactive) | > 100 µM (inactive) | > 100 µM (inactive) | > 100 µM (inactive) |  | > 100 µM (inactive) |
| CCCC(Sc1ccccc1)P(=O)(c1ccccc1)c1ccccc1 (stereo not drawn) | 22.7 µM (inactive) | 37.8 µM (inactive) |  | 35.1 µM (inactive) | > 100 µM (inactive) | 43.5 µM (inactive) | 41.1 µM (inactive) |  | 42.1 µM (inactive) | 19.8 µM (inactive) | 41.8 µM (inactive) | 41.9 µM (inactive) |  |  | 28.6 µM (inactive) |  |
| CCN(CC)CC(=O)/C=C/c1ccc(C)cc1 | 29.2 µM (inactive) | 15.8 µM (inactive) | 18.9 | 20.7 µM (inactive) | 15.1 µM (inactive) | 17.6 µM (inactive) | 19.9 µM (inactive) | 19.5 µM (inactive) | 23.8 µM (inactive) | 19.2 µM (inactive) | 24.3 µM (inactive) | 16.2 µM (inactive) | 22.3 µM (inactive) | 20.8 µM (inactive) | 24.3 µM (inactive) | 17.9 µM (inactive) |
